Assay results published in US10232060B2, “CEST systems exhibiting a concentration independent responsiveness” (BRACCO IMAGING S.P.A., priority 2010, dated 2019).

Legend:
Format in all cases: physicochemical
[1] = In vitro responsive properties towards temperature (Z-spectra); details: for resonance frequency of hydroxylic protons, less shifted stereoisomer / resonance frequency of hydroxylic protons, more shifted stereoisomer: 24 mM, pH 7.31
Procedure: A solution of Yb(III)HPDO3A (24 mM) having pH 7.31 was used for test.
The test was performed with a phantom containing solution of YbHPDO3A-tetramer in serum having different concentration, ranging from 0.26 to 8.4 mM., pH 7.4 and 298K. The dependence of the chemical shifts of the OH mobile protons (of the tetrameric complex stereoisomers) on the Temperature was tested by operating as formerly described for the monomeric compound.

[2] = Z-spectrum / NMR resonances of the exchangeable OH protons of NMR-distinguishable isomers in solution
Source text: (§1) CEST MR contrast enhancement have been determined on images acquired at 7 T on a Bruker Avance 300 spectrometer equipped with a Micro2.5 microimaging probe. A typical RARE spin-echo sequence (rare factor 64) with an echo time of 3.3 ms and a TR value of 5 s were used. An acquisition matrix of 64×64 with a square FOV of 10 mm was used. The whole sequence was preceded by a saturation scheme consisting of a continuous wave pulse 2 s long with a RF intensity of 24, 12, 6 μT. The Z-spectra were successively analyzed in order to determine the ratiometric value by using a software compiled in MATLAB platform operating, broadly, as disclosed in Development and validation of a smoothing-splines-based correction method for improving the analysis of CEST-MR images, Stancanello J Terreno E, Delli Castelli D, Cabella C, Uggeri F 1, Aime S.; CONTRAST MEDIA & MOLECULAR IMAGING Volume: 3, Issue: 4, Pages: 136-149, 2008; and in Methods for an improved detection of the MRI-CEST effect. Terreno E, Stancanello 3, Longo D, Delli Castelli D, Milone L, Sanders H M H F, Kok M B, Uggeri F, Aime S; CONTRAST MEDIA & MOLECULAR IMAGING; Volume: 4; Issue: 5; Pages: 237-247; 2009 that are all herein included by reference. The total paramagnetic concentration of the solution was determined through the measurement of magnetic susceptibility of the solution on a Bruker Avance 600 spectrometer (12T).

[3] = In vitro responsiveness towards pH (CEST MRI of phantom, ratiometric ST); details: in vitro solutions buffered at different pH
Source text: as §1, with “[…]. […]” for “(12T).”

| Compound | sensitivity of the OH chemical shift to temperature (in words) [1] | chemical shift of OH proton, first diastereoisomer (from water) ([2]; pH=2 and 37° C.) [ppm] | chemical shift of OH proton, second diastereoisomer ([2]; pH=2 and 37° C.) [ppm] | responsiveness of the saturation transfer towards pH (in words) [3] | resonance frequency of hydroxylic protons, less shifted stereoisomer ([1]; 20° C.) [ppm] | resonance frequency of hydroxylic protons, more shifted stereoisomer ([1]; 20° C.) [ppm] | resonance frequency of hydroxylic protons, less shifted stereoisomer ([1]; 37° C.) [ppm] | resonance frequency of hydroxylic protons, more shifted stereoisomer ([1]; 37° C.) [ppm] | chemical shift of hydroxyl group, less shifted NMR-distinguishable diastereoisomer ([2]; 20° C.) [ppm] | chemical shift of hydroxyl group, more shifted NMR-distinguishable diastereoisomer ([2]; 20° C.) [ppm] |
| --- | --- | --- | --- | --- | --- | --- | --- | --- | --- | --- |
| 1,23-bis[4,7,10-triacetate[1,4,7,10-tetraazacyclododecan-(1)-yl]]-12,12′-bis[11[4,7,10-triacetate)-[1,4,7,10-tetraazacyclododecan-(1)-yl]]2-aza-3-oxo-5,8-dioxy-10-hydroxyundecanyl]2,22-dihydroxy-4,7,17,20-tetroxy-9,15-dioxo-10,14-diazatricosane tetra Ytterbium Complex (1:4) [YbHPDO3A-tetramer] | greatly increased |  |  |  |  |  |  |  |  |  |
| CC(O)CN1CCN(CC(=O)[O-])CCN(CC(=O)[O-])CCN(CC(=O)[O-])CC1.[Eu+3] (centres unmarked) [EuHPDO3A] |  | 20.5 | 16.7 |  |  |  |  |  |  |  |
| CC(O)CN1CCN(CC(=O)[O-])CCN(CC(=O)[O-])CCN(CC(=O)[O-])CC1.[Yb+3] (centres unmarked) [YbHPDO3A] | very sensitive to the temperature |  |  | is different | 72 | 99 | 64.3 | 88 | 72 | 99 |
